Patent US20170002313A1, “COMPOSITIONS AND METHODS OF OBTAINING AND USING ENDODERM AND HEPATOCYTE CELLS” (Genentech Inc., priority 2012, published 2017)

Tests used:
[1] = test system: human embryonic stem cells (hESC); test: Endoderm differentiation of hESC with small-molecule inhibitors, flow cytometry of endoderm markers; type: cell-based
Excerpt: A variety of cell-type specific markers were used to monitor the differentiation of stem cells into endoderm cells in the flow cytometry, fluorescence imaging, and immunoassay experiments described below. To detect endoderm conversion, hESC-derived cell samples were stained for the expression of SOX17, FoxA2, and CXCR4 proteins. SOX17, FoxA2, and CXCR4 are proteins that are expressed by endoderm cells but not by stem cells. To detect stem cells, cell samples were stained for the expression of OCT4, a protein expressed by stem cells but not by endoderm cells.
Undifferentiated human embryonic stem cells (hES) were maintained at a density of 40,000 cells/cm^2 on qualified matrigel (BD, #354277) in TesR™2 medium ([…]™ Technologies #05860). Cultures were manually passaged twice a week. To prepare for endoderm differentiation, hESC cells were passaged into TesR™2 medium overnight. The following day, the TesR™2 medium was replaced with basal medium (DMEM/F12+Glutamax (Invitrogen, #10565) supplemented with B27 (Invitrogen, #17504-044)). No human embryos were destroyed in the process of obtaining stem cells for these methods. Furthermore, the plurality of stem cells is not obtained by the prior destruction of human embryos.
Unless otherwise noted, basal medium was supplemented with […] human Activin A (Peprotech, #120-14). When indicated, basal medium was also supplemented with an effective amount of, e.g., a growth factor such as […] human Wnt3a (R&D, #5036-WN-010), an isoform-specific P13K inhibitor or an mTOR inhibitor. […]
To prepare the cells for flow cytometry, hESC-derived cells grown under endoderm differentiation conditions were dissociated using Accutase (Innovative Cell technologies, #AT-104). Briefly, the cells were washed once in PBS, incubated with Accutase for 10 minutes at room temperature, pelleted, and washed in cold PBS. The Accutase-dissociated hESC-derived cell samples were stained with anti-CXC4 antibody, anti-SOX17 antibody, or anti-FoxA2 antibody. Additional cell samples were stained with isotype control antibodies (e.g., IgG1 or IgG2).
The cells that were to be stained with anti-CXCR4 antibody were washed once with cold DPBS and then directly stained with mouse anti-human CD184 (CXCR4)-IgG2-PE (BD, #555974) for one hour at 4° C. The cells that were to be stained with anti-SOX17 antibody or anti-FoxA2 antibody were first fixed for 25 minutes at 4° C. in fixation buffer (BD, #554655) and permeabilized for 30 minutes on ice in Perm Buffer III (BD, #554656). Anti-SOX17 staining was performed using a mouse anti-SOX17 IgG1-PE antibody (BD, #561591) at room temperature for 30 minutes. Anti-FoxA2 staining was performed using a mouse anti-human FoxA2 IgG1 (BD, #561589) under the same conditions. A control sample of cells were fixed as described above and stained with either an anti-IgG1-PE antibody (BD, #554680) at room temperature for 30 minutes or an anti-IgG2-PE antibody (BD, #55574) for one hour at 4° C.
The antibody-stained hESC-derived cells were then analyzed via flow cytometry using a BD LSRFortessa™ cell analyzer. […] Approximately 1×10^6 cells were analyzed per sample.

[2] = test system: human embryonic stem cells (hESC); test: AlphaLISA of SOX17 and OCT4 in hESC-derived cells; type: cell-based
Protocol: To detect OCT4, the cells were washed three times in PBS and lysed with 50 ul AlphaLISA Lysis Buffer (Perkin Elmer, #AL003C). The lysis buffer was added to each cell sample and mixed with the cells five times. The cell samples were then incubated in a plate shaker at room temperature for 15 minutes. 5 μl of the lysate from each sample was then transferred to a 384 well OptiPlate (Perkin Elmer, #6005629). 5 μl of 10 ug/ml anti-rabbit acceptor bead (Perkin Elmer, #AL104M) and […] of 0.2 nM of rabbit anti-OCT4 antibody (Cell Signaling, #2890) was added to each well and incubated for 2 hours at room temperature. Following the incubation, 5 μl of 0.5 nM mouse anti-OCT4 antibody (BD, #611203) and […] of 0.5 nM biotinylated goat anti-mouse antibody (Invitrogen, #B2763) were added to each well and incubated at room temperature for 2 hours. Following the incubation, […] of streptavidin donor beads (Perkin Elmer, #6760002B) were added to each well and incubated for 30 minutes. The OptiPlates were then analyzed using an Envision Multilabel Plate Reader (Perkin Elmer, #2104-0010). All beads and antibodies were diluted as necessary in IAB Buffer (Perkin Elmer, #AL000C)+50 mM NaCl. Four replicate assays were performed.
To detect SOX17, the cells were washed three times in PBS and lysed with 50 ul Roche Complete Lysis Buffer (Roche, #04719956001). The lysis buffer was added to each cell sample and mixed with the cells five times. The cell samples were then incubated in a plate shaker at room temperature for 15 minutes. 5 μl of the lysate from each sample was then transferred to a 384 well OptiPlate (Perkin Elmer, #6005629). 5 μl of 10 ug/ml anti-rabbit acceptor bead (Perkin Elmer, #AL104M) and […] of 1 nM of rabbit anti-SOX17 antibody (Sigma, #AV33271) was added to each well and incubated for 2 hours at room temperature. Following the incubation, 5 μl of 0.5 nM mouse anti-SOX antibody (Sigma, #SAB3300093) and […] of 0.5 nM biotinylated goat anti-mouse antibody (Invitrogen, #B2763) were added to each well and incubated at room temperature for 2 hours. Following the incubation, […] of streptavidin donor beads (Perkin Elmer, #6760002B) were added to each well and incubated for 30 minutes. The OptiPlates were then analyzed using an Envision Multilabel Plate Reader (Perkin Elmer, #2104-0010). All beads and antibodies were diluted as necessary in IAB Buffer (Perkin Elmer, #AL000C) Four replicate assays were performed.
After a 3-day treatment, cells were harvested and stained with anti-SOX17 antibody as described above in preparation for AlphaLISA analysis.

[3] = test system: hESC-derived endoderm cells; test: CellTiter-Glo Luminescent Cell Viability Assay; type: cell-based, human; conditions: Activin A + 100 nM to 1.5 μM Compound A, 7 days
Excerpt: In this assay, metabolically active cells in each sample tested were quantified as a function of ATP levels produced by the sample.

hESC-derived cells = test: xCELLigence proliferation and viability time course; type: cell-based, human; conditions: 12 days, no medium change; Activin A + 750 nM Compound A, or Activin A + Wnt3a + 5 μM LY294002
Protocol: The hESC-derived cells grown under each condition were assayed for their proliferation and viability once a day for 12 days with no medium change using Roche's xCELLigence System according to standard protocol.
xCELLigence measured proliferation and viability as a function of impedance signal. High impedance signals indicated cell attachment to the surface of the culture dish, which is associated with increased proliferation. In contrast low impedance signals indicated cells' detachment from the surface of the culture dish, which is associated with cell death. […] The experiments whose results are depicted in FIG. 8 were performed in duplicate. Accordingly, there are two curves for each condition.

phosphorylated mTOR = test: Phospho imaging assay (immunofluorescence); type: cell-based, human
Protocol: (§1) The effect of each compound on the PI3K/AKT/MTOR pathway was evaluated in two ways: via a kinase profile (FIG. 23) and via phospho imaging assays (i.e., immunofluorescence assays using antibodies specific for the phosphorylated form of mTOR or AKT). In vitro kinase profiling provided percent inhibition for numerous targets within the PI3K cell signaling pathway, and cell-based imaging assays were performed to directly visualize the effect of each compound on phosphorylated Akt and phosphorylated mTOR in the cell system used for differentiation.
(§2) In column 2 of Table 6, the PI3K alpha_MTOR score reflects the ability of a compound to inhibit the phosphorylation of PI3K alpha and mTOR, where + indicates minimal inhibition, and +++ indicates maximal inhibition. In column 3 of Table 6, the score indicates the ratio of phosphorylated mTOR (as measured by fluorescence intensity) in cells treated with a compound and the phosphorylated mTOR (as measured by fluorescence intensity) in cells that were not treated with the compound. In column 4 of Table 6, the score indicates the ratio of phosphorylated AKT (as measured by fluorescence intensity) in cells treated with a compound and the phosphorylated AKT (as measured by fluorescence intensity) in cells that were not treated with the compound. A reported effect of AKT inhibitors is an increase in phosphorylated AKT.

phosphorylated AKT = test: Phospho imaging assay (immunofluorescence); type: cell-based, human
Protocol: as §1, §2

mTOR = mTOR (Homo sapiens, UniProt P42345); test: In vitro kinase profile, PI3K alpha_MTOR score; type: biochemical
Protocol: as §1, §2

Akt = test: In vitro kinase profile; type: biochemical
Protocol: as §1

[4] = test system: human embryonic stem cells (hESC); test: Dose response with Activin A for optimal concentration (SOX17, cell death); type: cell-based
Protocol: To facilitate extended characterization, it was necessary to determine the optimal concentration of each of the compounds for use subsequent experiments. The optimal concentration of each compound was determined based on two parameters: highest efficiency of endoderm differentiation and low toxicity. Each compound was tested with Activin A in a dose response manner. The concentration that gave the highest % SOX17 expressing cells at Day 3 without causing more than 30% cell death compared to control was determined for each compound. The yield of differentiation went from 4% to 81% SOX17+ cells at day 3.

PI3K alpha = PI3K alpha (Homo sapiens, UniProt P42336); test: In vitro kinase profile, PI3K alpha_MTOR score; type: biochemical
Protocol: as §1, §2

[5] = test system: hESC-derived endoderm cells; test: Hepatocyte differentiation of endoderm cells, flow cytometry; type: cell-based, human; conditions: hepatoblast medium in the absence of FGF4 and BMP2
Protocol: After 10-day treatment, the endoderm-derived cells were harvested using TrypLE. Briefly, the cells were washed once in PBS, incubated with TrypLE for 5 minutes at 37° C. The incubated cells were then diluted 10-fold with PBS, pelleted, and prepared for further analysis.
Prior to flow cytometry analysis, the Accutase-dissociated endoderm-derived cell samples were stained with an anti-AFP primary antibody followed by a secondary antibody.
The harvested endoderm-derived cells were washed with cold DPBS. […] The cells were washed three more times in permeabilization/wash buffer prior to flow cytometry analysis.
HepG2 cells, which were derived from a well-differentiated hepatocellular carcinoma, were also stained as a positive control. The cells were analyzed via flow cytometry as described above. Approximately 1.5×10^6 cells were analyzed per sample.
Endoderm cells were treated with different combinations of growth factors and tested for their capability to differentiate into hepatocytes. hESC were differentiated into endoderm cells as described above. […] After 10 days of treatment, the endoderm-derived cells were prepared for flow cytometry and imaging analysis as described above.
An additional control sample was prepared in which endoderm cells obtained by culture with Activin A alone were cultured in hepatoblast medium in the absence of any additional growth factors. […]

[6] = time course, Activin A + 750 nM Compound A, no Wnt3a, day 5
[7] = dose response of Compound A with Activin A
[8] = Activin A + 750 nM inhibitor, no Wnt3a, 3-day treatment

PI3K alpha, sequence (P42336 whole entry, species assumed): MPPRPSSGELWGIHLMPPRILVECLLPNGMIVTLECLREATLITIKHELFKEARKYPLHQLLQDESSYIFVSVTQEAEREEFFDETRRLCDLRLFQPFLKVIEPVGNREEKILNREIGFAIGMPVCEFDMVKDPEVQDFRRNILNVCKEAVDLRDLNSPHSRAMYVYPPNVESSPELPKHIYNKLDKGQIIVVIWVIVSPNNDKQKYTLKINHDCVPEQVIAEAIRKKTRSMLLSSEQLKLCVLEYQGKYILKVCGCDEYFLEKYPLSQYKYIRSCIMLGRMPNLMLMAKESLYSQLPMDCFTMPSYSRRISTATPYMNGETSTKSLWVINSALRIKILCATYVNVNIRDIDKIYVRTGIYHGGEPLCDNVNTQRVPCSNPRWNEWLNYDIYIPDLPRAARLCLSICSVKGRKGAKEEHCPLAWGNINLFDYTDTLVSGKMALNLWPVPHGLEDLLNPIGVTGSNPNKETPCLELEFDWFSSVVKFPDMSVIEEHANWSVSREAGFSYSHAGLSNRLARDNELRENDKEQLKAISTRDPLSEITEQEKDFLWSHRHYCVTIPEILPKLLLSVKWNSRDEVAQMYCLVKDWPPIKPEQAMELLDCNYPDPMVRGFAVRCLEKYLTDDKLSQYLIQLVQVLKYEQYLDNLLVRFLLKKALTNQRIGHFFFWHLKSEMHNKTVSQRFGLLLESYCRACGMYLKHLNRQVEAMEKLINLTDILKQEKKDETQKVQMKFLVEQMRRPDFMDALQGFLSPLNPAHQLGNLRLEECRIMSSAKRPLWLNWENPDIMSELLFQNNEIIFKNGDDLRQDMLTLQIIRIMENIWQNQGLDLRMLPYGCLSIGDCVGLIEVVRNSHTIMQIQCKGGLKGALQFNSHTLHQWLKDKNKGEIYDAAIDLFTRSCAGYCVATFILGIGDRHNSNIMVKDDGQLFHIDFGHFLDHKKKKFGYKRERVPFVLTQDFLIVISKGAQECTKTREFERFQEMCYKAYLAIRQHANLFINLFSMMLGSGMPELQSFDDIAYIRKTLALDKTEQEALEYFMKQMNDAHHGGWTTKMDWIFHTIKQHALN
PI3K alpha, sequence (P27986 whole entry partner, species assumed): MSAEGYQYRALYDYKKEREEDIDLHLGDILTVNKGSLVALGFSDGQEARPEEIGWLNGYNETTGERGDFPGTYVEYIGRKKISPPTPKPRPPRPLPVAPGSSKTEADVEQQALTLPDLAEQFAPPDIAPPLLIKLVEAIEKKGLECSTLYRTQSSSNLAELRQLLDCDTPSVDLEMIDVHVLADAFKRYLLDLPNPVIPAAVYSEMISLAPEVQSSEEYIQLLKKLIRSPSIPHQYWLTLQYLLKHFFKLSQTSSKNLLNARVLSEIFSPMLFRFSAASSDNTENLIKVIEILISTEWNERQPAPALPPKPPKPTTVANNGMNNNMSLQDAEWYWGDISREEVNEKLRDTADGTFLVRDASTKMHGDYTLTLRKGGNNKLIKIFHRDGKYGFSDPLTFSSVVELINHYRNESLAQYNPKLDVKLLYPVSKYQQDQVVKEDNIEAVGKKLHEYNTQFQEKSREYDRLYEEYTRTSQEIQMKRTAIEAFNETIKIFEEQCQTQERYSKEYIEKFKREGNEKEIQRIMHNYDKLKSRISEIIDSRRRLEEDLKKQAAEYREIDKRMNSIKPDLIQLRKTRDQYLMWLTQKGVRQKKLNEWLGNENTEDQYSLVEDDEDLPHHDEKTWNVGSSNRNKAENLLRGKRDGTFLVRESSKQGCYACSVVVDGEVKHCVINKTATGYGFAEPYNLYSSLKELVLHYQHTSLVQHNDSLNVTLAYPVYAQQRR

CS(=O)(=O)N1CCN(Cc2cc3nc(-c4cccc5[nH]ncc45)nc(N4CCOCC4)c3s2)CC1 [Compound A, 4-[2-(1H-indazol-4-yl)-6-[(4-methylsulfonylpiperazin-1-yl)methyl]thieno[3,2-d]pyrimidin-4-yl]morpholine]
% of hESC-derived cells expressing SOX17 ([1]; Activin A + Wnt3a + 500 nM inhibitor, 3-day treatment): 93.5-93.9%
% of hESC-derived cells expressing SOX17 ([1]; dose response, Activin A + 750 nM Compound A, no Wnt3a, 3-day treatment): 84%
% of hESC-derived cells expressing SOX17 ([1]; isoform-specific PI3K inhibitor + Activin A alone, 3-day treatment): about 77.35%
% of hESC-derived cells expressing CXCR4 [1, 6]: 82%
% of hESC-derived cells expressing FoxA2 [1, 6]: 87%
% of hESC-derived cells expressing SOX17 [1, 6]: 91%
OCT4 expression (AlphaLISA) [2, 7]: decreases
SOX17 expression (AlphaLISA) [2, 7]: increases with increasing concentrations of Compound A up to 750 nM
viability (ATP levels) [3]: greater viability at 7 days
viability and proliferation (impedance signal) (hESC-derived cells): remain viable and proliferative past day 4

CCNC(=O)Nc1ccc2ncc(Nc3ccc(C)cc3)nc2n1 [Compound D1066]
effect on mTOR phosphorylation in cell-based imaging assays (phosphorylated mTOR): did not exhibit any effects on Akt or mTOR phosphorylation
effect on Akt phosphorylation in cell-based imaging assays (phosphorylated AKT): did not exhibit any effects on Akt or mTOR phosphorylation
reduction of phosphorylation of mTOR (FIG. 23) (mTOR): did not show reduction of phosphorylation of mTOR or Akt
reduction of phosphorylation of Akt (FIG. 23) (Akt): did not show reduction of phosphorylation of mTOR or Akt

CO[C@@H]1[C@H](N(C)C(=O)c2ccccc2)C[C@H]2O[C@]1(C)n1c3ccccc3c3c4c(c5c6ccccc6n2c5c31)C(=O)NC4 [PKC412]
reduction of phosphorylation of mTOR (FIG. 23) (mTOR): potent reduction of phosphorylation
toxicity [4]: may be toxic

COc1ccc(COc2cc3oc(=O)c4cc(C(C)O)ccc4c3cc2OC)cc1 (stereo not drawn) [Palomid 529]
effect on mTOR phosphorylation in cell-based imaging assays (phosphorylated mTOR): did not exhibit any effects on Akt or mTOR phosphorylation
effect on Akt phosphorylation in cell-based imaging assays (phosphorylated AKT): did not exhibit any effects on Akt or mTOR phosphorylation
reduction of phosphorylation of mTOR (FIG. 23) (mTOR): did not show reduction of phosphorylation of mTOR or Akt
reduction of phosphorylation of Akt (FIG. 23) (Akt): did not show reduction of phosphorylation of mTOR or Akt

CO[C@H]1C[C@@H]2CC[C@@H](C)[C@@](O)(O2)C(=O)C(=O)N2CCCC[C@H]2C(=O)O[C@H]([C@H](C)C[C@@H]2CC[C@@H](OCCO)[C@H](OC)C2)CC(=O)[C@H](C)/C=C(\C)[C@@H](O)[C@@H](OC)C(=O)[C@H](C)C[C@H](C)/C=C/C=C/C=C/1C [everolimus]
Avg(Avg (Ph MTOR_60m_%C # Spots)) (phosphorylated mTOR; 1 h): 36.46 %C
endoderm conversion (SOX17, FoxA2, CXCR4 flow cytometry) [1, 8]: higher degree of endoderm conversion
endoderm conversion (SOX17 AlphaLISA) [2, 8]: better endoderm conversion than cells cultured in Activin A alone or cells cultured with an Akt inhibitor
PI3K alpha_MTOR score: PI3K alpha (PI3K alpha): PI3K alpha+_MTOR+
PI3K alpha_MTOR score: MTOR (mTOR): PI3K alpha+_MTOR+

B1: Activin A: human Activin A (Peprotech), member of the TGF beta family (protein, UniProt P08476 311-426, looked up)
Inhibin beta A chain: GLECDGKVNICCKKQFFVSFKDIGWNDWIIAPSGYHANYCEGECPSHIAGTSGSSLSFHSTVINHYRMRGHSPFANLKSCCVPTKLRPMSMLYYDDGQNIIKKDIQNMIVEECGCS
modifications: Inhibin beta A chain homodimer
% of hESC-derived cells expressing SOX17 ([1]; Activin A alone, 3-day treatment): 20%
% of endoderm-derived cells expressing AFP [5]: 7.65%
